Measurements published in ChEMBL document CHEMBL1201862, “PubChem BioAssay data set” (2004).
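How tested: cells in 96-well plates exposed to compound for 48 hours at five concentrations. GI50 is the concentration that inhibits growth by half.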 Calls of active or inactive are those of the source. Rule as the data show it: active = GI50 up to about 1.1 µM and inactive = higher.

What was measured:
Experiment in all cases: growth of human tumour cells (NCI), 48 h
HL-60 = tested on: HL-60
T47D = tested on: T47D
UACC-257 = tested on: UACC-257
MDA-MB-231 = tested on: MDA-MB-231
SNB-75 = tested on: SNB-75
EKVX = tested on: EKVX
HCT-116 = tested on: HCT-116
ACHN = tested on: ACHN
SF-295 = tested on: SF-295
SK-MEL-28 = tested on: SK-MEL-28
OVCAR-4 = tested on: OVCAR-4
MOLT-4 = tested on: MOLT-4
Malme-3M = tested on: Malme-3M
OVCAR-8 = tested on: OVCAR-8
M14 = tested on: M14
DU-145 = tested on: DU-145
HCC 2998 = tested on: HCC 2998
HOP-62 = tested on: HOP-62
RXF 393 = tested on: RXF 393
SR = tested on: SR

Measured: GI50

CCC12CCCN3CCc4c(n(c5ccccc45)C(O)(C(=O)OC)C1)C32 (stereo not drawn)
inactive: HL-60 > 100 µM | T47D > 100 µM | UACC-257 > 100 µM | MDA-MB-231 > 100 µM | SNB-75 > 100 µM | EKVX > 100 µM | HCT-116 > 100 µM | ACHN > 100 µM | SF-295 > 100 µM | SK-MEL-28 > 100 µM | OVCAR-4 > 100 µM | MOLT-4 > 100 µM | Malme-3M > 100 µM | OVCAR-8 > 100 µM | M14 > 100 µM | DU-145 > 100 µM | HCC 2998 > 100 µM

COc1cccc([C@@H]2CC(=O)c3cc4c(cc3N2)OCO4)c1
inactive: T47D > 100 µM | UACC-257 > 100 µM | MDA-MB-231 > 100 µM | SNB-75 86.3 µM | EKVX > 100 µM | HCT-116 > 100 µM | ACHN > 100 µM | SF-295 > 100 µM | HOP-62 > 100 µM | SK-MEL-28 > 100 µM | OVCAR-4 > 100 µM | RXF 393 > 100 µM | OVCAR-8 > 100 µM | M14 > 100 µM | DU-145 > 100 µM | HCC 2998 > 100 µM

COc1ccc(OC)c(C(Cc2ccnc3ccccc23)Cc2ccnc3ccccc23)c1
inactive: T47D 6.25 µM | UACC-257 > 10 µM | MDA-MB-231 > 10 µM | SNB-75 6.11 µM | EKVX 5.15 µM | ACHN > 10 µM | SF-295 6.71 µM | HOP-62 > 10 µM | SK-MEL-28 > 10 µM | OVCAR-4 6.11 µM | MOLT-4 5.79 µM | RXF 393 > 10 µM | OVCAR-8 > 10 µM | M14 > 10 µM | DU-145 > 10 µM | HCC 2998 > 10 µM
active: HCT-116 0.857 µM

C=C1[C@@H]2CCC3[C@]4(C)C(CC[C@@]5(C)C(=O)O[C@H](O)[C@@H]45)[C@H](O)[C@]3(C2)[C@H]1OC1OC(CO)C(O)C(O)C1O (stereo partly drawn)
inactive: HL-60 > 50 µM | T47D > 50 µM | UACC-257 > 50 µM | MDA-MB-231 > 50 µM | SNB-75 > 50 µM | EKVX > 50 µM | HCT-116 > 50 µM | ACHN > 50 µM | SF-295 > 50 µM | HOP-62 > 50 µM | SK-MEL-28 > 50 µM | OVCAR-4 > 50 µM | MOLT-4 17.4 µM | RXF 393 > 50 µM | Malme-3M > 50 µM | OVCAR-8 > 50 µM | M14 > 50 µM | DU-145 > 50 µM

C1CSCCCSCCCSCCCSCCCSCCCSCCCSCCCSC1
inactive: HL-60 > 100 µM | T47D > 100 µM | UACC-257 > 100 µM | MDA-MB-231 > 100 µM | EKVX > 100 µM | HCT-116 > 100 µM | ACHN > 100 µM | SF-295 > 100 µM | HOP-62 > 100 µM | SK-MEL-28 > 100 µM | OVCAR-4 > 100 µM | MOLT-4 > 100 µM | RXF 393 > 100 µM | Malme-3M > 100 µM | OVCAR-8 > 100 µM | M14 > 100 µM | DU-145 > 100 µM | HCC 2998 > 100 µM

CC(=O)OCCCCn1cc(Cn2ccc(=O)n(Cc3cn(CCCCOC(C)=O)nn3)c2=O)nn1
inactive: T47D > 100 µM | UACC-257 > 100 µM | MDA-MB-231 > 100 µM | SNB-75 > 100 µM | EKVX > 100 µM | HCT-116 > 100 µM | ACHN > 100 µM | SF-295 > 100 µM | HOP-62 > 100 µM | SK-MEL-28 > 100 µM | OVCAR-4 > 100 µM | MOLT-4 > 100 µM | RXF 393 > 100 µM | Malme-3M > 100 µM | OVCAR-8 > 100 µM | M14 > 100 µM | DU-145 > 100 µM | HCC 2998 > 100 µM

Fc1ccc(C(OCCN2CCC3CCC(C2)N3Cc2cc3ccccc3[nH]2)c2ccc(F)cc2)cc1 (stereo not drawn)
inactive: HL-60 1.58 µM | T47D 1.59 µM | UACC-257 1.95 µM | MDA-MB-231 1.7 µM | SNB-75 1.89 µM | EKVX 1.7 µM | HCT-116 1.33 µM | ACHN 1.89 µM | SF-295 1.96 µM | HOP-62 2.05 µM | SK-MEL-28 1.61 µM | OVCAR-4 1.95 µM | MOLT-4 1.35 µM | RXF 393 1.59 µM | Malme-3M 1.58 µM | OVCAR-8 1.73 µM | M14 1.6 µM | DU-145 1.85 µM | HCC 2998 1.63 µM

COC(=O)c1cc(-c2ccc(-c3ccc(O)cc3)cc2)cc(-c2ccc(-c3ccc(O)cc3)cc2)c1
inactive: T47D 4.61 µM | UACC-257 14.1 µM | MDA-MB-231 17.9 µM | SNB-75 7.74 µM | EKVX 11.9 µM | HCT-116 5.64 µM | ACHN 8.71 µM | SF-295 6.75 µM | HOP-62 12.1 µM | SK-MEL-28 13 µM | OVCAR-4 13.5 µM | MOLT-4 10.4 µM | RXF 393 5.62 µM | M14 13.4 µM | HCC 2998 11.2 µM

CSc1cc(-c2cccs2)sc1-c1cc(SC)c(-c2sc(-c3sc(-c4cccs4)cc3SC)cc2SC)s1
inactive: HL-60 > 100 µM | T47D > 100 µM | UACC-257 > 100 µM | MDA-MB-231 > 100 µM | EKVX > 100 µM | HCT-116 > 100 µM | ACHN > 100 µM | SF-295 > 100 µM | HOP-62 > 100 µM | SK-MEL-28 > 100 µM | OVCAR-4 > 100 µM | MOLT-4 > 100 µM | RXF 393 > 100 µM | Malme-3M > 100 µM | OVCAR-8 > 100 µM | M14 > 100 µM | DU-145 > 100 µM | HCC 2998 > 100 µM

COc1ccc(C2SCC(=O)N2NC(=O)c2ccc(NC(C)=O)cc2)cc1 (stereo not drawn)
inactive: T47D > 100 µM | UACC-257 > 100 µM | MDA-MB-231 26.5 µM | SNB-75 > 100 µM | EKVX > 100 µM | HCT-116 > 100 µM | ACHN > 100 µM | SF-295 > 100 µM | HOP-62 > 100 µM | SK-MEL-28 > 100 µM | OVCAR-4 > 100 µM | MOLT-4 > 100 µM | RXF 393 > 100 µM | OVCAR-8 > 100 µM | M14 > 100 µM | DU-145 > 100 µM | HCC 2998 > 100 µM

COC(=O)C1CC=C(SC(=O)c2ccccc2)N1C(=O)c1ccccc1 (stereo not drawn)
inactive: T47D > 100 µM | UACC-257 > 100 µM | MDA-MB-231 > 100 µM | SNB-75 76 µM | EKVX > 100 µM | HCT-116 > 100 µM | ACHN > 100 µM | SF-295 > 100 µM | HOP-62 > 100 µM | SK-MEL-28 > 100 µM | OVCAR-4 > 100 µM | MOLT-4 > 100 µM | RXF 393 > 100 µM | Malme-3M > 100 µM | OVCAR-8 > 100 µM | M14 > 100 µM | DU-145 > 100 µM | HCC 2998 > 100 µM

Cc1oc2c(c1C)S(=O)(=O)C(C#N)=C(c1ccccc1)N2
inactive: T47D > 100 µM | UACC-257 > 100 µM | MDA-MB-231 > 100 µM | SNB-75 > 100 µM | EKVX > 100 µM | SR > 100 µM | ACHN > 100 µM | SF-295 > 100 µM | HOP-62 > 100 µM | SK-MEL-28 > 100 µM | OVCAR-4 > 100 µM | MOLT-4 > 100 µM | Malme-3M 63.5 µM | OVCAR-8 > 100 µM | M14 > 100 µM | DU-145 > 100 µM | HCC 2998 > 100 µM

O=S(=O)(c1ccccc1)n1c(C(O)c2ccccc2)cc2ccccc21 (stereo not drawn)
inactive: HL-60 11.4 µM | T47D 21.3 µM | UACC-257 16.2 µM | MDA-MB-231 17.3 µM | SNB-75 14.7 µM | EKVX 17.4 µM | HCT-116 16.5 µM | ACHN 15.7 µM | SF-295 16.9 µM | HOP-62 17.9 µM | SK-MEL-28 19.6 µM | OVCAR-4 18.1 µM | MOLT-4 36.4 µM | RXF 393 14.3 µM | Malme-3M 18.3 µM | OVCAR-8 16.9 µM | M14 14.9 µM | DU-145 33.9 µM | HCC 2998 17.5 µM

Cc1ccc(C(=O)NCc2ccccc2)cc1/N=N/N(C)C
inactive: HL-60 37.2 µM | T47D 39.7 µM | UACC-257 21.4 µM | MDA-MB-231 > 100 µM | EKVX > 100 µM | SR 60 µM | HCT-116 > 72.1 µM | ACHN > 75.3 µM | SF-295 > 71.9 µM | HOP-62 > 100 µM | SK-MEL-28 > 96.6 µM | OVCAR-4 > 76.2 µM | MOLT-4 56.8 µM | Malme-3M > 100 µM | OVCAR-8 > 100 µM | M14 > 100 µM | DU-145 > 100 µM | HCC 2998 > 100 µM

COc1cc2nc(-c3cccs3)nc(Nc3cccc(Cl)c3)c2cc1OC
inactive: HL-60 > 100 µM | T47D 44.6 µM | UACC-257 > 100 µM | MDA-MB-231 > 100 µM | SNB-75 36.3 µM | EKVX 88.9 µM | SR 91.6 µM | HCT-116 > 100 µM | ACHN 78.5 µM | SF-295 22.5 µM | HOP-62 20.3 µM | SK-MEL-28 81.8 µM | OVCAR-4 28.8 µM | MOLT-4 61.8 µM | Malme-3M 27.7 µM | OVCAR-8 37.8 µM | M14 78.3 µM | DU-145 90.6 µM
